These molecules were tested on HIV-1 IIIB (assay: HOS HIV-1 infectivity assay). Details: Human immunodeficiency virus 1, IIIB; as determined by the infectivity assay; strain not stated in Table 2; read-out: Activity Level.
Format: cell-based
Method: Compounds were profiled against two HIV-1 viruses, the M-tropic (CCR5 utilizing) Ba-L strain and the T-tropic (CXCR4 utilizing) IIIB strain. Both viruses were propagated in human peripheral blood lymphocytes. Compounds were tested for there ability to block infection of the HOS cell line (expressing hCXCR4/hCCR5/hCD4/pHIV-LTR-luciferase) by either HIV-1 Ba-L or HIV-1 IIIB. Compound cytotoxicity was also examined in the absence of virus addition.
HOS cells (expressing hCXCR4/hCCR5/hCD4/pHIV-LTR-luciferase) were harvested and diluted in Dulbeccos modified Eagles media supplemented with 2% FCS and non-essential amino acid to a concentration of 60,000 cells/ml. The cells were plated into 96-well plates (100 ul per well) and the plates were placed in a tissue culture incubator (37° C.; 5% CO2/95% air) for a period of 24 h.
Subsequently, 50 ul of the desired drug solution (4 times the final concentration) was added to each well and the plates were returned to the tissue culture incubator (37° C.; 5% CO2/95% air) for 1 h. Following this incubation 50 ul of diluted virus was added to each well (approximately 2 million RLU per well of virus). The plates were returned to the tissue culture incubator (37° C.; 5% CO2/95% air) and were incubated for a further 96 h.
Following this incubation the endpoint for the virally infected cultures was quantified following addition of Steady-Glo Luciferase assay system reagent (Promega, Madison, Wis.). Cell viability or non-infected cultures was measured using a CellTiter-Glo luminescent cell viability assay system (Promega, Madison, Wis.). All luminescent readouts are performed on a Topcount luminescence detector (Packard, Meridien, Conn.).

First: CN(Cc1nc2ccccc2n1CCc1ccccn1)C1CCCc2cccnc21 (stereo not shown) [Example 37, N-methyl-N-([1-[2-(2-pyridinyl)ethyl]-1H-benzimidazol-2-yl]methyl)-5,6,7,8-tetrahydro-8-quinolinamine]
Second: CN(Cc1nc2ccccc2n1C[C@H]1CCCN(Cc2ccccn2)C1)[C@H]1CCCc2cccnc21 [Example 40, (8S)—N-Methyl-N-[(1-{[(3S)-1-(2-pyridinylmethyl)-3-piperidinyl]methyl}-1H-benzimidazol-2-yl)methyl]-5,6,7,8-tetrahydro-8-quinolinamine]
The IC50 of the first is higher: 0.1 to 0.5 µM for the first, less than 0.1 µM for the second. The second is the more potent here.

First: CN(C)CCCn1ccnc1CN(C)C1CCCc2cccnc21 (stereo not shown) [Example 38, N-({1-[3-(Dimethylamino)propyl]-1H-imidazol-2-yl}methyl)-N-methyl-5,6,7,8-tetrahydro-8-quinolinamine]
Second: CN(C)CCCCCCn1c(CN(C)C2CCCc3cccnc32)nc2ccccc21 (stereo not shown) [Example 49, N-({1-[6-(Dimethylamino)hexyl]-1H-benzimidazol-2-yl}methyl)-N-methyl-5,6,7,8-tetrahydro-8-quinolinamine]
The IC50 of the first is higher: 0.5 to 10 µM for the first, 0.1 to 0.5 µM for the second. The second is the more potent here.

`CN(Cc1nc2ccccc2n1C[C@H]1CCCNC1)[C@H]1CCCc2cccnc21` [Example 39h, (8S)—N-Methyl-N-({1-[(3S)-3-piperidinylmethyl]-1H-benzimidazol-2-yl}methyl)-5,6,7,8-tetrahydro-8-quinolinamine] and `CN1CCC[C@H](Cn2c(CN(C)[C@H]3CCCc4cccnc43)nc3ccccc32)C1` [Example 39i, (8S)—N-Methyl-N-[(1-{[(3S)-1-methyl-3-piperidinyl]methyl}-1H-benzimidazol-2-yl)methyl]-5,6,7,8-tetrahydro-8-quinolinamine] cannot be ordered by IC50: less than 0.1 µM for the first, less than 0.1 µM for the second.

`CN(Cc1nc2ccccc2n1C[C@H]1CCCN(Cc2cccnc2)C1)[C@H]1CCCc2cccnc21` [Example 41, (8S)—N-Methyl-N-[(1-{[(3S)-1-(3-pyridinylmethyl)-3-piperidinyl]methyl}-1H-benzimidazol-2-yl)methyl]-5,6,7,8-tetrahydro-8-quinolinamine] and `CN(Cc1nc2ccccc2n1C[C@H]1CCCN(Cc2ccncc2)C1)[C@H]1CCCc2cccnc21` [Example 42, (8S)—N-Methyl-N-[(1-{[(3S)-1-(4-pyridinylmethyl)-3-piperidinyl]methyl}-1H-benzimidazol-2-yl)methyl]-5,6,7,8-tetrahydro-8-quinolinamine] cannot be ordered by IC50: less than 0.1 µM for the first, less than 0.1 µM for the second.

`CN(Cc1nc2ccccc2n1C[C@H]1CCCN(Cc2ccccc2)C1)[C@H]1CCCc2cccnc21` [Example 43, (8S)—N-Methyl-N-[(1-{[(3S)-1-(phenylmethyl)-3-piperidinyl]methyl}-1H-benzimidazol-2-yl)methyl]-5,6,7,8-tetrahydro-8-quinolinamine] and `CN(Cc1nc2ccccc2n1C[C@H]1CCCN(Cc2ncc[nH]2)C1)[C@H]1CCCc2cccnc21` [Example 45, (8S)—N-[(1-{[(3S)-1-(1H-Imidazol-2-ylmethyl)-3-piperidinyl]methyl}-1H-benzimidazol-2-yl)methyl]-N-methyl-5,6,7,8-tetrahydro-8-quinolinamine] cannot be ordered by IC50: less than 0.1 µM for the first, less than 0.1 µM for the second.

`CC(C)CN1CCC[C@H](Cn2c(CN(C)[C@H]3CCCc4cccnc43)nc3ccccc32)C1` [Example 44, (8S)—N-Methyl-N-[(1-{[(3S)-1-(2-methylpropyl)-3-piperidinyl]methyl}-1H-benzimidazol-2-yl)methyl]-5,6,7,8-tetrahydro-8-quinolinamine] and `CN(Cc1nc2ccccc2n1C[C@H]1CCCN(CCO)C1)[C@H]1CCCc2cccnc21` [Example 46, 2-((3S)-3-{[2-({Methyl[(8S)-5,6,7,8-tetrahydro-8-quinolinyl]amino}methyl)-1H-benzimidazol-1-yl]methyl}-1-piperidinyl)ethanol] cannot be ordered by IC50: less than 0.1 µM for the first, less than 0.1 µM for the second.

First: CN(Cc1nc2ccccc2n1C[C@H]1CCCN(CCCO)C1)[C@H]1CCCc2cccnc21 [Example 47, 3-((3S)-3-{[2-({Methyl[(8S)-5,6,7,8-tetrahydro-8-quinolinyl]amino}methyl)-1H-benzimidazol-1-yl]methyl}1-piperidinyl)-1-propanol]
Second: CN1CCCCC1CCCn1c(CN(C)C2CCCc3cccnc32)nc2ccccc21 (stereo not shown) [Example 59, N-Methyl-N-({1-[3-(1-methyl-2-piperidinyl)propyl]-1H-benzimidazol-2-yl}methyl)-5,6,7,8-tetrahydro-8-quinolinamine]
The IC50 of the first is lower: less than 0.1 µM for the first, 0.1 to 0.5 µM for the second.

`CN(C)Cc1cccc(Cn2c(CN(C)C3CCCc4cccnc43)nc3ccccc32)c1` (stereo not shown) [Example 48, N-{[1-({3-[(Dimethylamino)methyl]phenyl}methyl)-1H-benzimidazol-2-yl]methyl}-N-methyl-5,6,7,8-tetrahydro-8-quinolinamine] and `CN(C)Cc1ccccc1Cn1c(CN(C)C2CCCc3cccnc32)nc2ccccc21` (stereo not shown) [Example 50, N-{[1-({2-[(Dimethylamino)methyl]phenyl}methyl)-1H-benzimidazol-2-yl]methyl}-N-methyl-5,6,7,8-tetrahydro-8-quinolinamine] fall in the same range of IC50: 0.1 to 0.5 µM for the first, 0.1 to 0.5 µM for the second.

`CN(Cc1nc2ccccc2n1CCCCNS(C)(=O)=O)C1CCCc2cccnc21` (stereo not shown) [Example 51, N-[4-(2-{[Methyl(5,6,7,8-tetrahydro-8-quinolinyl)amino]methyl}-1H-benzimidazol-1-yl)butyl]methanesulfonamide] and `CN(Cc1nc2ccccc2n1CCCNS(C)(=O)=O)C1CCCc2cccnc21` (stereo not shown) [Example 63, N-[3-(2-{[Methyl(5,6,7,8-tetrahydro-8-quinolinyl)amino]methyl}-1H-benzimidazol-1-yl)propyl]methanesulfonamide] fall in the same range of IC50: 0.1 to 0.5 µM for the first, 0.1 to 0.5 µM for the second.

`NCCCn1c(CN(CCc2ccccc2)C2CCCc3cccnc32)nc2ccccc21` (stereo not shown) [Example 52, N-{[1-(3-Aminopropyl)-1H-benzimidazol-2-yl]methyl}-N-(2-phenylethyl)-5,6,7,8-tetrahydro-8-quinolinamine] and `NCCCCn1c(CN(CCc2ccccc2)C2CCCc3cccnc32)nc2ccccc21` (stereo not shown) [Example 53, N-{[1-(4-Aminobutyl)-1H-benzimidazol-2-yl}methyl]-N-(2-phenylethyl)-5,6,7,8-tetrahydro-8-quinolinamine] fall in the same range of IC50: 0.5 to 10 µM for the first, 0.5 to 10 µM for the second.

First: CC(C)CCN(Cc1nc2ccccc2n1CCCCN)C1CCCc2cccnc21 (stereo not shown) [Example 54, N-{[1-(4-Aminobutyl)-1H-benzimidazol-2-yl]methyl}-N-(3-methylbutyl)-5,6,7,8-tetrahydro-8-quinolinamine]
Second: CC(C)CCNCCCn1c(CN(C)C2CCCc3cccnc32)nc2ccccc21 (stereo not shown) [Example 64, N-Methyl-N-[(1-{3-[(3-methylbutyl)amino]propyl}-1H-benzimidazol-2-yl)methyl]-5,6,7,8-tetrahydro-8-quinolinamine]
The IC50 of the first is higher: 0.1 to 0.5 µM for the first, less than 0.1 µM for the second. The second is the more potent here.

First: NCCCCn1c(CN(Cc2ccccc2)C2CCCc3cccnc32)nc2ccccc21 (stereo not shown) [Example 55, N-{[1-(4-Aminobutyl)-1H-benzimidazol-2-yl]methyl}-N-(Phenylmethyl)-5,6,7,8-tetrahydro-8-quinolinamine]
Second: CN(Cc1nc2ccccc2n1CCCNS(=O)(=O)c1ccccc1)C1CCCc2cccnc21 (stereo not shown) [Example 62, N-[3-(2-{[Methyl(5,6,7,8-tetrahydro-8-quinolinyl)amino]methyl}-1H-benzimidazol-1-yl)propyl]benzenesulfonamide]
The IC50 of the first is higher: 0.5 to 10 µM for the first, 0.1 to 0.5 µM for the second. The second is the more potent here.

`CN(C)CC#CCn1c(CN(C)C2CCCc3cccnc32)nc2ccccc21` (stereo not shown) [Example 56, N-({1-[4-(Dimethylamino)-2-butyn-1-yl}-1H-benzimidazol-2-yl]methyl)-N-methyl-5,6,7,8-tetrahydro-8-quinolinamine] and `CN(Cc1nc2ccccc2n1C/C=C/CN)C1CCCc2cccnc21` (stereo not shown) [Example 58, N-({1-[(2E)-4-Amino-2-buten-1-yl]-1H-benzimidazol-2-yl}methyl)-N-methyl-5,6,7,8-tetrahydro-8-quinolinamine] fall in the same range of IC50: 0.1 to 0.5 µM for the first, 0.1 to 0.5 µM for the second.

First: CN(Cc1nc2ccccc2n1CCCN1CCOCC1)C1CCCc2cccnc21 (stereo not shown) [Example 57, N-Methyl-N-([1-[3-(4-morpholinyl)propyl]-1H-benzimidazol-2-yl]methyl)-5,6,7,8-tetrahydro-8-quinolinamine]
Second: CN(Cc1nc2ccccc2n1CCCNC(=N)N)C1CCCc2cccnc21 (stereo not shown) [Example 61, N-[3-(2-{[Methyl(5,6,7,8-tetrahydro-8-quinolinyl)amino]methyl}-1H-benzimidazol-1-yl)propyl]guanidine]
The IC50 of the first is higher: 0.1 to 0.5 µM for the first, less than 0.1 µM for the second.

First: CC(C)N(Cc1nc2ccccc2n1CCCN(C)C)C1CCCc2cccnc21 (stereo not shown) [Example 60, N-({1-[3-(Dimethylamino)propyl]-1H-benzimidazol-2-yl}methyl)-N-(1-methylethyl)-5,6,7,8-tetrahydro-8-quinolinamine]
Second: CC(C)CCN(CCCn1c(CN(C)C2CCCc3cccnc32)nc2ccccc21)CCC(C)C (stereo not shown) [Example 65, N-[(1-[3-[Bis(3-methylbutyl)amino]propyl]-1H-benzimidazol-2-yl)methyl]-N-methyl-5,6,7,8-tetrahydro-8-quinolinamine]
The IC50 of the first is lower: less than 0.1 µM for the first, 0.5 to 10 µM for the second.

Molecule `CC(C)CCN(Cc1nc2ccccc2n1CC(C)(C)CN(C)C)C1CCCc2cccnc21` (stereo not shown) [Example 66, N-({1-[3-(Dimethylamino)-2,2-dimethylpropyl]-1H-benzimidazol-2-yl}methyl)-N-(3-methylbutyl)-5,6,7,8-tetrahydro-8-quinolinamine] has an IC50 of 0.5 to 10 µM.

— patent US20080096861A1, “Chemical Compounds” (SMITHKLINE BEECHAM CORPORATION, priority 2004, published 2008)
